According to patent US5916876A, “Peptide inhibitors of leukocyte adhesion” (Centocor, Inc., priority 1994, dated 1999):
Residues, ends and D or L forms follow the SMILES beside them.

Biological target: T1, human P-selectin (Homo sapiens, UniProt P16109)
T1 construct: from tissue; host or cells: outdated human platelet packs from a blood bank
T1 sequence (P16109 42-830): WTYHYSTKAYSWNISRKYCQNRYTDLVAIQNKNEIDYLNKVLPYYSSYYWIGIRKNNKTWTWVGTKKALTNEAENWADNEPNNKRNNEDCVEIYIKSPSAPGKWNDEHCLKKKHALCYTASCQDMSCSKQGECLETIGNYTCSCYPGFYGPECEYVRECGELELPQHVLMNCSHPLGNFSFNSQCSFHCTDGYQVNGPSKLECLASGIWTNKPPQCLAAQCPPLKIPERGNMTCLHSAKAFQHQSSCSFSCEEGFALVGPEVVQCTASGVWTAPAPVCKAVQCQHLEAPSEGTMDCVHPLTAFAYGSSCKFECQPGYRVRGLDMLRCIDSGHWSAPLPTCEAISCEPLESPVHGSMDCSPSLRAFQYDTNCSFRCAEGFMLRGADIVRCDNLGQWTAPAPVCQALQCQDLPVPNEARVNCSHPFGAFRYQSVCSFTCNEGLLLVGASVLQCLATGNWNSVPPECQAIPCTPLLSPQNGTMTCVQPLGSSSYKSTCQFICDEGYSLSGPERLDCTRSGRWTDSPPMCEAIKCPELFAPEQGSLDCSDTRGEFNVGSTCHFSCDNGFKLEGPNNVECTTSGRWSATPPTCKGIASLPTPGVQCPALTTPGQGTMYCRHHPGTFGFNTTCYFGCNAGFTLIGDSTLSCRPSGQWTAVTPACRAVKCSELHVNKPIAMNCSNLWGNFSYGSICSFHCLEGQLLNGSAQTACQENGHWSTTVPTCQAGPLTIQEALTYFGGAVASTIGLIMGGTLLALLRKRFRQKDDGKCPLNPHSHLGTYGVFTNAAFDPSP
Test: Neutrophil adhesion to purified P-selectin immobilized on plastic wells (myeloperoxidase readout)
Format: cell-based
Settings: inhibition of binding of human neutrophils to human P-selectin; head: 0.3 μM peptide, text b193: 300 μM; read-out: % INHIBITION AT 0.3 μM PEPTIDE CONC.
Description: Peptides can be screened for their ability to inhibit adhesion to cells, for example, neutrophil adhesion to purified P-selectin immobilized on plastic wells, using the assay described by Geng, et al., Nature 343, 757-760 (1990).
Human neutrophils are isolated from heparinized whole blood by density gradient centrifugation on Mono-Poly resolving media, Flow Laboratories. Neutrophil suspensions are greater than 98% pure and greater than 95% viable by trypan blue exclusion. For adhesion assays, neutrophils are suspended at a concentration of 2×10^6 cells/mL in Hanks' balanced salt solution containing 1.26 mM Ca^2+ and 0.81 mM Mg^2+ (HBSS, Gibco) with […] human serum albumin (HBSS/HSA). Adhesion assays are conducted in triplicate in 96-well microtiter plates, Corning, incubated at 4° C. overnight with 50 microliters of various protein solutions.
P-selectin is isolated from human platelet lysates by immunoaffinity chromatography on antibody S12-Sepharose™ and ion-exchange chromatography on a Mono-Q™ column (FLPC, Pharmacia Fine Chemicals), as follows.
Outdated human platelet packs (100 units) obtained from a blood bank and stored at 4° C. are pooled, adjusted to 5 mM EDTA at pH 7.5, centrifuged at 4,000 rpm for 30 minutes in 1 liter bottles, then washed three times with 1 liter of 0.1 M NaCl, 20 mM Tris pH 7.5 (TBS), 5 mM EDTA, 5 mM benzamidine.
The pellets are then resuspended in a minimum amount of wash buffer and made 1 mM in DIFP, then frozen in 50 mL screwtop tubes at -80° C. The frozen platelets are thawed and resuspended in 50 mL TBS, 5 mM benzamidine, 5 mM EDTA pH 7.5, 100 µM leupeptin. The suspension is frozen and thawed two times in a dry ice-acetone bath using a 600 mL lyophilizing flask, then homogenized in a glass/teflon mortar and pestle and made 1 mM in DIFP. The NaCl concentration is adjusted to 0.5 M with a stock solution of 4 M NaCl. After stirring the suspension at 4° C., it is centrifuged in polycarbonate tubes at 33,000 rpm for 60 minutes at 4° C. The supernatant (0.5 M NaCl wash) is removed and saved; this supernatant contains the soluble form of P-selectin. Care is taken not to remove the top part of the pellet with the supernatant. The pellets are then homogenized in extraction buffer (TBS, 5 mM benzamidine, 5 mM EDTA, pH 7.5, 100 μM leupeptin, 2% Triton X-100). After centrifugation at 19,500 rpm for 25 minutes at 4° C., the supernatant is removed. The extraction procedure is repeated with the pellet and the supernatant is combined with the first supernatant. The combined extracts, which contain the membrane form of P-selectin, are adjusted to 0.5 M NaCl.
The soluble fraction (0.5 M NaCl wash) and the membrane extract (also adjusted to 0.5 M NaCl) are absorbed with separate pools of the monoclonal antibody S12 (directed to P-selectin) previously coupled to Affigel (Biorad) at 5 mg/mL for 2 hours at 4° C. After letting the resins settle, the supernatants are removed. The S12 Affigel containing bound GMP-140 is then loaded into a column and washed overnight at 4° C. with 400 mL of 0.5 M NaCl, 20 mM Tris pH 7.5, 0.01% Lubrol PX.
Bound P-selectin is eluted from the S12 Affigel with 100 mL of 80% ethylene glycol, 1 mM MES pH 6.0, 0.01% Lubrol PX. Peak fractions with absorbance at 280 nm are pooled. Eluates are dialyzed against TBS with 0.05% Lubrol, then applied to a Mono Q column (FPLC from Pharmacia). The concentrated protein is step eluted with 2 M NaCl, 20 mM Tris pH 7.5 (plus 0.05% Lubrol PX for the membrane fraction). Peak fractions are dialyzed into TBS pH 7.5 (plus 0.05% Lubrol PX for the membrane fraction).
P-selectin is plated at 5 micrograms/mL and the control proteins: human serum albumin (Alb), platelet glycoprotein IIb/IIIa (IIb), von Willebrand factor (vWF), fibrinogen (FIB), thrombomodulin (TM), gelatin (GEL) or human serum (HS), are added at 50 micrograms/mL. […]

inhibition at 300 µM | Structure (SMILES)
100% | CC(C)C[C@H](NC(=O)[C@@H](NC(=O)[C@H](CCCCN)NC(=O)[C@H](CC(N)=O)NC(=O)[C@@H](N)CC(C)C)C(C)C)C(=O)N1CCC[C@H]1C(=O)N[C@@H](Cc1ccc(O)cc1)C(=O)N[C@@H](Cc1ccc(O)cc1)C(=O)N[C@@H](CO)C(=O)N[C@@H](CO)C(=O)N[C@@H](Cc1ccc(O)cc1)C(=O)N[C@@H](Cc1ccc(O)cc1)C(=O)N[C@H](C(N)=O)C(C)C [SEQ ID NO: 3, Leu--Asn--Lys--Val--Leu--Pro--Tyr--Tyr--Ser--Ser--Tyr--Tyr--Val-NH2] (H-LNKVLPYYSSYYV-NH2)
102% | CC(C)C[C@H](NC(=O)[C@@H](NC(=O)[C@@H](N)CCCCN)C(C)C)C(=O)N1CCC[C@H]1C(=O)N[C@@H](Cc1ccc(O)cc1)C(=O)N[C@@H](Cc1ccc(O)cc1)C(=O)N[C@@H](CO)C(=O)N[C@@H](CO)C(=O)N[C@@H](Cc1ccc(O)cc1)C(=O)N[C@@H](Cc1ccc(O)cc1)C(=O)N[C@H](C(N)=O)C(C)C [SEQ ID NO: 5, Lys--Val--Leu--Pro--Tyr--Tyr--Ser--Ser--Tyr--Tyr--Val-NH2] (H-KVLPYYSSYYV-NH2)
61% | CC(C)C[C@H](NC(=O)[C@H](Cc1ccc(O)cc1)NC(=O)[C@@H](N)CC(=O)O)C(=O)N[C@@H](CC(N)=O)C(=O)N[C@@H](CCCCN)C(=O)N[C@H](C(=O)N[C@@H](CC(C)C)C(=O)N1CCC[C@H]1C(=O)N[C@@H](Cc1ccc(O)cc1)C(=O)N[C@@H](Cc1ccc(O)cc1)C(=O)N[C@@H](CO)C(=O)N[C@@H](CO)C(=O)N[C@@H](Cc1ccc(O)cc1)C(=O)N[C@@H](Cc1ccc(O)cc1)C(N)=O)C(C)C [SEQ ID NO: 6, Asp--Tyr--Leu--Asn--Lys--Val--Leu--Pro--Tyr--Tyr--Ser--Ser--Tyr--Tyr-NH2] (H-DYLNKVLPYYSSYY-NH2)
66% | CC(C)C[C@H](NC(=O)[C@@H](N)C(C)C)C(=O)N1CCC[C@H]1C(=O)N[C@@H](Cc1ccc(O)cc1)C(=O)N[C@@H](Cc1ccc(O)cc1)C(=O)N[C@@H](CO)C(=O)N[C@@H](CO)C(=O)N[C@@H](Cc1ccc(O)cc1)C(=O)N[C@@H](Cc1ccc(O)cc1)C(=O)N[C@H](C(N)=O)C(C)C [SEQ ID NO: 10, Val--Leu--Pro--Tyr--Tyr--Ser--Ser--Tyr--Tyr--Val-NH2] (H-VLPYYSSYYV-NH2)
18% | CC(C)C[C@H](NC(=O)[C@@H](NC(=O)[C@@H](N)CCCCN)C(C)C)C(=O)N1CCC[C@H]1C(=O)N[C@@H](Cc1ccc(O)cc1)C(=O)N[C@@H](Cc1ccc(O)cc1)C(=O)N[C@@H](CO)C(=O)N[C@@H](C)C(=O)N[C@@H](Cc1ccc(O)cc1)C(=O)N[C@@H](Cc1ccc(O)cc1)C(N)=O [SEQ ID NO: 14, Lys--Val--Leu--Pro--Tyr--Tyr--Ser--Ala--Tyr--Tyr-NH2] (H-KVLPYYSAYY-NH2)
34% | CC(C)C[C@H](NC(=O)[C@@H](NC(=O)[C@@H](N)CCCCN)C(C)C)C(=O)N1CCC[C@H]1C(=O)N[C@@H](Cc1ccc(O)cc1)C(=O)NCC(=O)N[C@@H](CO)C(=O)N[C@@H](CO)C(=O)N[C@@H](Cc1ccc(O)cc1)C(=O)N[C@@H](Cc1ccc(O)cc1)C(N)=O [SEQ ID NO: 19, Lys--Val--Leu--Pro--Tyr--Gly--Ser--Ser--Tyr--Tyr-NH2] (H-KVLPYGSSYY-NH2)
29% | CC(C)[C@H](NC(=O)[C@@H](N)CCCCN)C(=O)N[C@@H](CCC(N)=O)C(=O)N1CCC[C@H]1C(=O)N[C@@H](Cc1ccc(O)cc1)C(=O)N[C@@H](Cc1ccc(O)cc1)C(=O)N[C@@H](CO)C(=O)N[C@@H](CO)C(=O)N[C@@H](Cc1ccc(O)cc1)C(=O)N[C@@H](Cc1ccc(O)cc1)C(N)=O [SEQ ID NO: 22, Lys--Val--Gln--Pro--Tyr--Tyr--Ser--Ser--Tyr--Tyr-NH2] (H-KVQPYYSSYY-NH2)
54% | CC[C@H](C)[C@H](NC(=O)[C@H](CO)NC(=O)[C@H](CC(N)=O)NC(=O)[C@H](CC(C)C)NC(=O)[C@H](Cc1ccc(O)cc1)NC(=O)[C@@H](N)CCC(=O)O)C(=O)N[C@@H](CC(C)C)C(=O)N[C@@H](CO)C(=O)N[C@@H](Cc1ccc(O)cc1)C(=O)N[C@@H](CO)C(=O)N1CCC[C@H]1C(=O)N[C@@H](CO)C(=O)N[C@@H](Cc1ccc(O)cc1)C(=O)N[C@@H](Cc1ccc(O)cc1)C(=O)N[C@@H](Cc1c[nH]c2ccccc12)C(N)=O [SEQ ID NO: 23, Glu--Tyr--Leu--Asn--Ser--Ile--Leu--Ser--Tyr--Ser--Pro--Ser--Tyr--Tyr--Trp-NH2] (H-EYLNSILSYSPSYYW-NH2)
